# From article PMC11968819 (Scientific Reports, 2025)
# Legend:
# [1] = system: human duodenal organoid-derived monolayer model
# [2] = human, four-donor-derived monolayer models (Supplementary Fig. 8a)
# [3] = system: UDP-glucuronosyltransferase (UGT); assay: Raloxifene permeability and metabolizing assay; assay type: in vitro ADME, human; settings: 5 μM raloxifene
# [4] = biological target: T1, Carboxylesterase 2 (CES2) (Homo sapiens, UniProt O00748); assay: Irinotecan metabolizing assay; assay type: in vitro ADME; settings: 10 μM irinotecan, 20 μM loperamide, 3 h
# T1 sequence (O00748 27-559): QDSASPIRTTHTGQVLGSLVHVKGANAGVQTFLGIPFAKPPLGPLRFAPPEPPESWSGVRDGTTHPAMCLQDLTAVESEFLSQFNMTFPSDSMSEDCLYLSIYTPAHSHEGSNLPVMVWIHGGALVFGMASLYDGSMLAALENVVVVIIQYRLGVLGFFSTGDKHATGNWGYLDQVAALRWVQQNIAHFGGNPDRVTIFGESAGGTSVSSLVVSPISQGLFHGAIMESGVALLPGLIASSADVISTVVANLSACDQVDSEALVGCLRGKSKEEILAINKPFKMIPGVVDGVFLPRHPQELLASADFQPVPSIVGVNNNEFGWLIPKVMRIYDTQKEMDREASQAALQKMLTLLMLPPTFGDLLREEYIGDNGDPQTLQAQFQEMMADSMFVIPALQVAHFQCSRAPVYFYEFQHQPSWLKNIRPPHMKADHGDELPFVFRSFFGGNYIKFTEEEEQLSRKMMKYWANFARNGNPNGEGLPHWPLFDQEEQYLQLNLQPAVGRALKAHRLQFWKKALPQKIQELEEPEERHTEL
# P-gp = P-gp (Homo sapiens, UniProt P08183); assay: Efflux drug transporter assay with digoxin; settings: 10 μM digoxin, 10 μM inhibitor
# Chain of P-gp (P08183 whole entry): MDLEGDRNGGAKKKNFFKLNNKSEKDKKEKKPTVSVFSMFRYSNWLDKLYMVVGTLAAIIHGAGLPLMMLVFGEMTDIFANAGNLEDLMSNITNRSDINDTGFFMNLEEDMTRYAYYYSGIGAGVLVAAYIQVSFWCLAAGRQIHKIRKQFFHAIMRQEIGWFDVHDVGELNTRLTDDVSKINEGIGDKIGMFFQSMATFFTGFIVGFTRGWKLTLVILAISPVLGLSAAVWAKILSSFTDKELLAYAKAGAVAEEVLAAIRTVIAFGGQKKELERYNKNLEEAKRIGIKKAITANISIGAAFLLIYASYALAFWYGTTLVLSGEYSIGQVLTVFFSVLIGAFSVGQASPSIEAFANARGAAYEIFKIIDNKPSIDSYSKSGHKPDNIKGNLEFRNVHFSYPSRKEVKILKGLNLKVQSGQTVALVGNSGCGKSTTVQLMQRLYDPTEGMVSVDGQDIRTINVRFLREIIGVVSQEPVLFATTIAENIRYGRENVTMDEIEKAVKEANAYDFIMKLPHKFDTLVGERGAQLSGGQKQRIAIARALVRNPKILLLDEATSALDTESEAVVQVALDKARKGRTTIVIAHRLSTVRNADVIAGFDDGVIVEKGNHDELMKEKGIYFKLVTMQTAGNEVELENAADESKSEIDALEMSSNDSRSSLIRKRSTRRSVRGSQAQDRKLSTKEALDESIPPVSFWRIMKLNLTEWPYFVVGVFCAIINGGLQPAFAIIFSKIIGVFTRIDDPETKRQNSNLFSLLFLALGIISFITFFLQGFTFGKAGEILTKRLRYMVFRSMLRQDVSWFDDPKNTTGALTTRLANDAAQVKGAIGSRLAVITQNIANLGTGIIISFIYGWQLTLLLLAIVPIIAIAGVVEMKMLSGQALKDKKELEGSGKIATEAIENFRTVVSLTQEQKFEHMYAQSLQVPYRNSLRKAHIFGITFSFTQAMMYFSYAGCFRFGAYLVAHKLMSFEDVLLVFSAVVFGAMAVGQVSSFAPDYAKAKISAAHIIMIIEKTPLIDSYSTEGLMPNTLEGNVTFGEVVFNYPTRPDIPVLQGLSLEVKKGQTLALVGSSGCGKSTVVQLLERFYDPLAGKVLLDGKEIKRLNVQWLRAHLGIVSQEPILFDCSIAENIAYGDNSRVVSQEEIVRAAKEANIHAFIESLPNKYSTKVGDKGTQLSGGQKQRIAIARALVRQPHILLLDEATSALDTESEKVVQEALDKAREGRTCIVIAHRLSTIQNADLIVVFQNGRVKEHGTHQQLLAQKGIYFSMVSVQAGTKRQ
# [5] = system: human duodenal organoid-derived monolayer model; assay: FaSSIF tolerability assay with lucifer yellow; assay type: in vitro ADME; settings: FaSSIF pH 6.5 apical, 2 h; within individual experiments and inter-experiments
Molecule,Papp at 10 μM [2],other results
"Nn1nnc2ccccc21 [ABT, 1-aminobenzotriazole]",–,Effect on amount of midazolam metabolites [1]: significantly decreased; Effect on midazolam permeability [1]: significantly enhanced
Cc1cc(=O)n(-c2ccccc2)n1C [Antipyrine],> 1 ×10⁻⁶ cm/s,–
NC(=O)N1c2ccccc2C=Cc2ccccc21 [Carbamazepine],> 1 ×10⁻⁶ cm/s,–
CCC1=C(C)CN(C(=O)NCCc2ccc(S(=O)(=O)NC(=O)N[C@H]3CC[C@H](C)CC3)cc2)C1=O [Glimepiride],> 1 ×10⁻⁶ cm/s,–
CC(C(=O)O)c1cccc(C(=O)c2ccccc2)c1 (stereo not drawn) [Ketoprofen],> 1 ×10⁻⁶ cm/s,–
COCCc1ccc(OCC(O)CNC(C)C)cc1 (stereo not drawn) [Metoprolol],> 1 ×10⁻⁶ cm/s,–
Cc1onc(-c2ccccc2)c1C(=O)N[C@@H]1C(=O)N2[C@@H]1SC(C)(C)[C@@H]2C(=O)O [Oxacillin],< 1 ×10⁻⁶ cm/s,–
O=C(O)C[C@H](O)C[C@H](O)/C=C/c1c(C2CC2)nc2ccccc2c1-c1ccc(F)cc1 [Pitavastatin],> 1 ×10⁻⁶ cm/s,–
CC(C)NCC(O)COc1cccc2ccccc12 (stereo not drawn) [Propranolol],> 1 ×10⁻⁶ cm/s,–
O=C(c1ccc(OCCN2CCCCC2)cc1)c1c(-c2ccc(O)cc2)sc2cc(O)ccc12 [Raloxifene],–,Metabolism by UGT [3]: mostly found to be metabolized to glucuronide
CN(CCOc1ccc(CC2SC(=O)NC2=O)cc1)c1ccccn1 (stereo not drawn) [Rosiglitazone],> 1 ×10⁻⁶ cm/s,–
CN(C)C(=O)C(CCN1CCC(O)(c2ccc(Cl)cc2)CC1)(c1ccccc1)c1ccccc1 [loperamide],–,Effect on generation of SN-38 from irinotecan [4]: significantly inhibited
"O[C@@H](COc1cccc2ncccc12)CN1CCN([C@@H]2c3ccccc3[C@@H]3[C@H](c4ccccc42)C3(F)F)CC1 [zosquidar, zosuquidar]",–,Effect on transport of P-gp substrate digoxin (P-gp): canceled
lucifer yellow,–,Papp of lucifer yellow [5]: below 1.0 × 10^–6 cm/s
